According to US20220323429A1, “PIMAVANSERIN FOR TREATING NEURODEGENERATIVE DISEASES” (ACADIA Pharmaceuticals Inc., priority 2019, published 2022):

Experiments:
[1] = In-use Stability Assay (HPLC) of pimavanserin 34 mg capsule contents in liquid/soft food vehicles; type: physicochemical; details: for Assay: ambient; for Time 0 (%) assay: time 0, average (n=6) accuracy/recovery
Procedure: (§1) Analytical HPLC Stability Study experiments (Example 1) were performed on Agilent 1200 Series, or equivalent; Waters XBridge C18 column, 5 μm 150×4.6 mm; mobile phase: Solvent A: 50 mM ammonium bicarbonate, pH 8.0; Solvent B: acetonitrile/methanol, 80:20 (v/v); Flow rate: 1 mL/min; Inj. Volume 20 μL; Autosampler Temp. 5° C.; column temperature: 40° C., detection UV at 210 nm; sample concentration (as free base) assay: 0.068 mg/mL, impurity: 0.68 mg/mL; standard concentration (as free base) 0.068 mg/mL; PLOQ Std. 0.05% of 0.68 mg/mL; SST solution, 1% of 0.68 mg/mL (impurities A, C, D, E, F, and G); diluent for standards 80/20 (v/v) ethanol/water; diluent for samples, ethanol; run time 40 min; gradient method: 0 min mobile phase A (90%) and mobile phase B (10%) to 30 min mobile phase A (0%), and mobile phase B (100%); then 30.1 min to 40 min mobile phase A (90%), mobile phase B (10%).
The stability of pimavanserin for administration via a nasogastric (NG) tube was assessed by sprinkling the content of one pimavanserin 34 mg capsule in water, applesauce, vanilla Ensure, and non-pulp orange juice. Samples were tested at time 0, 2, 4, and 24 hours after storage at ambient conditions. Samples were prepared in triplicate and average (n=6) accuracy/recovery results from the assay method were used at time 0.
For each sample, one capsule was weighed, and the content of the capsule dropped into a 500 mL volumetric flask containing the amount of vehicle specified in Table 1. The empty capsule shell was weighed and discarded. The flasks were gently swirled to ensure the capsule contents were visually incorporated with the vehicle. The flasks were kept at ambient temperature for each time point 2, 4, and 24 hours. Time 0 samples were processed immediately.
At the specified time point, a stir bar and approximately 450 mL of diluent were added to the flask. The samples were stirred vigorously for 2 hours, and then left on the bench overnight. The following day the flasks were sonicated for approximately 15-30 minutes. The stir bar was removed and rinsed carefully with diluent into the flask, and then the flask was diluted to volume with diluent and mixed well by inversion. An aliquot of each solution was centrifuged for 5 minutes at 10000 rpm. The supernatant was transferred to a HPLC vial and injected for analysis.

[2] = In-use stability impurity analysis (HPLC) of pimavanserin 34 mg capsule contents in vehicles; type: physicochemical; details: for Impurity D / Impurity Unknown RRT 0.90 / Impurity Unknown RRT 0.99 / Impurity Unknown RRT 1.10 / Total Imp.: ambient
Procedure: as §1
Samples for the assessment of the degradation products stability from solutions or mixtures of pimavanserin in vehicles were prepared as follows. Four samples (n=4) were prepared for each vehicle as follows.
For each sample, one capsule was weighed, and the content of each capsule was dropped into a 50 mL volumetric flask and the empty capsule shell was weighed and discarded. The specified amount of each vehicle was added as specified in Table 3, below.
The flasks were gently swirled to ensure the capsule contents were visually incorporated with the vehicle. The flasks were kept on the bench at ambient temperature for each time point: 2, 4, and 24 hours. Time 0 samples were processed immediately. At the specified time point a stir bar and approximately 45 mL of diluent were added to the flask. The solution was stirred vigorously for 2 hours, and the flask was left on the bench overnight. The next day the flasks were sonicated for approximately 30 minutes. The stir bar was removed and rinsed carefully with diluent into the flask, and the flask was diluted to volume with diluent and mixed well by inversion. An aliquot of each solution was centrifuged for 5 minutes at 10000 rpm. The supernatant was transferred to a HPLC vial, and injected for analysis.

CC(C)COc1ccc(CNC(=O)N(Cc2ccc(F)cc2)C2CCN(C)CC2)cc1 [Pimavanserin, N-(4-Fluorophenylmethyl)-N-(1-methylpiperidin-4-yl)-N′-(4-(2-methylpropyloxy)phenylmethyl)carbamide]
Assay ([1]; 34 mg capsule in Ensure 60 mL, T = 2 h): 100.3%
Assay ([1]; 34 mg capsule in Ensure 60 mL, T = 4 h): 100.7%
Assay ([1]; 34 mg capsule in Ensure 60 mL, T = 24 h): 98.1%
Assay ([1]; 34 mg capsule in applesauce 40 g, T = 2 h): 99.9%
Assay ([1]; 34 mg capsule in applesauce 40 g, T = 4 h): 97.7%
Assay ([1]; 34 mg capsule in applesauce 40 g, T = 24 h): 96.3%
Assay ([1]; 34 mg capsule in non-pulp orange juice 60 mL, T = 2 h): 99.2%
Assay ([1]; 34 mg capsule in non-pulp orange juice 60 mL, T = 4 h): 98.0%
Assay ([1]; 34 mg capsule in non-pulp orange juice 60 mL, T = 24 h): 98.3%
Assay ([1]; 34 mg capsule in water 40 mL, T = 2 h): 97.7%
Assay ([1]; 34 mg capsule in water 40 mL, T = 4 h): 95.6%
Assay ([1]; 34 mg capsule in water 40 mL, T = 24 h): 99.3%
Absolute Difference from Time 0 ([1]; Ensure, T = 2 h): 0.3%
Absolute Difference from Time 0 ([1]; Ensure, T = 4 h): 0.7%
Absolute Difference from Time 0 ([1]; Ensure, T = 24 h): 1.9%
Absolute Difference from Time 0 ([1]; applesauce, T = 2 h): 2.0%
Absolute Difference from Time 0 ([1]; applesauce, T = 4 h): 4.2%
Absolute Difference from Time 0 ([1]; applesauce, T = 24 h): 5.6%
Time 0 (%) assay ([1]; applesauce): 101.9%
Assay values difference from time 0 ([1]; individual capsules, up to 24 hours, all vehicles): ≤ 5%
Absolute Difference from Time 0 ([1]; orange juice, T = 2 h): 1.1%
Absolute Difference from Time 0 ([1]; orange juice, T = 4 h): 2.3%
Absolute Difference from Time 0 ([1]; orange juice, T = 24 h): 2.0%
Time 0 (%) assay ([1]; orange juice): 100.3%
stability in all vehicles ([1]; over 24 hours at ambient room temperature): acceptable
Time 0 (%) assay ([1]; vanilla Ensure): 100.0%
Absolute Difference from Time 0 ([1]; water, T = 2 h): 1.2%
Absolute Difference from Time 0 ([1]; water, T = 4 h): 3.3%
Absolute Difference from Time 0 ([1]; water, T = 24 h): 0.4%
Time 0 (%) assay ([1]; water): 98.9%
Impurity D ([2]; Ensure 5 mL, T = 0): 0.22 % w/w
Impurity Unknown RRT 0.90 ([2]; Ensure 5 mL, T = 0): 0.08 % w/w
Impurity Unknown RRT 0.99 ([2]; Ensure 5 mL, T = 0): 0.09 % w/w
Impurity Unknown RRT 1.10 ([2]; Ensure 5 mL, T = 0): 0.06 % w/w
Total Imp. ([2]; Ensure 5 mL, T = 0): 0.45 % w/w
Impurity D ([2]; Ensure 5 mL, T = 2 h): 0.20 % w/w
Impurity Unknown RRT 0.90 ([2]; Ensure 5 mL, T = 2 h): 0.08 % w/w
Impurity Unknown RRT 0.99 ([2]; Ensure 5 mL, T = 2 h): 0.10 % w/w
Impurity Unknown RRT 1.10 ([2]; Ensure 5 mL, T = 2 h): 0.05 % w/w
Total Imp. ([2]; Ensure 5 mL, T = 2 h): 0.43 % w/w
Impurity D ([2]; Ensure 5 mL, T = 4 h): 0.23 % w/w
Impurity Unknown RRT 0.90 ([2]; Ensure 5 mL, T = 4 h): 0.08 % w/w
Impurity Unknown RRT 0.99 ([2]; Ensure 5 mL, T = 4 h): 0.09 % w/w
Impurity Unknown RRT 1.10 ([2]; Ensure 5 mL, T = 4 h): 0.06 % w/w
Total Imp. ([2]; Ensure 5 mL, T = 4 h): 0.46 % w/w
Impurity D ([2]; Ensure 5 mL, T = 24 h): 0.23 % w/w
Impurity Unknown RRT 0.90 ([2]; Ensure 5 mL, T = 24 h): 0.07 % w/w
Impurity Unknown RRT 0.99 ([2]; Ensure 5 mL, T = 24 h): 0.10 % w/w
Impurity Unknown RRT 1.10 ([2]; Ensure 5 mL, T = 24 h): 0.06 % w/w
Total Imp. ([2]; Ensure 5 mL, T = 24 h): 0.46 % w/w
change in impurity profile ([2]; any vehicle, over 24 hours at ambient room temperature): no significant change
Impurity D ([2]; applesauce 5 g, T = 0): 0.19 % w/w
Impurity Unknown RRT 0.99 ([2]; applesauce 5 g, T = 0): 0.09 % w/w
Total Imp. ([2]; applesauce 5 g, T = 0): 0.28 % w/w
Impurity D ([2]; applesauce 5 g, T = 2 h): 0.21 % w/w
Impurity Unknown RRT 0.99 ([2]; applesauce 5 g, T = 2 h): 0.10 % w/w
Total Imp. ([2]; applesauce 5 g, T = 2 h): 0.31 % w/w
Impurity D ([2]; applesauce 5 g, T = 4 h): 0.22 % w/w
Impurity Unknown RRT 0.99 ([2]; applesauce 5 g, T = 4 h): 0.10 % w/w
Total Imp. ([2]; applesauce 5 g, T = 4 h): 0.32 % w/w
Impurity D ([2]; applesauce 5 g, T = 24 h): 0.22 % w/w
Impurity Unknown RRT 0.99 ([2]; applesauce 5 g, T = 24 h): 0.09 % w/w
Total Imp. ([2]; applesauce 5 g, T = 24 h): 0.31 % w/w
individual and total impurities across timepoints ([2]; each vehicle, 0-24 h): consistent between all timepoints
Impurity D ([2]; orange juice 5 mL, T = 0): 0.17 % w/w
Impurity Unknown RRT 0.99 ([2]; orange juice 5 mL, T = 0): 0.09 % w/w
Total Imp. ([2]; orange juice 5 mL, T = 0): 0.26 % w/w
Impurity D ([2]; orange juice 5 mL, T = 2 h): 0.17 % w/w
Impurity Unknown RRT 0.99 ([2]; orange juice 5 mL, T = 2 h): 0.09 % w/w
Total Imp. ([2]; orange juice 5 mL, T = 2 h): 0.26 % w/w
Impurity D ([2]; orange juice 5 mL, T = 4 h): 0.17 % w/w
Impurity Unknown RRT 0.99 ([2]; orange juice 5 mL, T = 4 h): 0.09 % w/w
Total Imp. ([2]; orange juice 5 mL, T = 4 h): 0.26 % w/w
Impurity D ([2]; orange juice 5 mL, T = 24 h): 0.17 % w/w
Impurity Unknown RRT 0.99 ([2]; orange juice 5 mL, T = 24 h): 0.09 % w/w
Total Imp. ([2]; orange juice 5 mL, T = 24 h): 0.26 % w/w
additional unknown impurities ([2]; two impurities, samples extracted from vanilla Ensure, time 0): < 0.1%
Impurity D ([2]; water 5 mL, T = 0): 0.23 % w/w
Impurity Unknown RRT 0.99 ([2]; water 5 mL, T = 0): 0.10 % w/w
Total Imp. ([2]; water 5 mL, T = 0): 0.33 % w/w
Impurity D ([2]; water 5 mL, T = 2 h): 0.24 % w/w
Impurity Unknown RRT 0.99 ([2]; water 5 mL, T = 2 h): 0.10 % w/w
Total Imp. ([2]; water 5 mL, T = 2 h): 0.34 % w/w
Impurity D ([2]; water 5 mL, T = 4 h): 0.23 % w/w
Impurity Unknown RRT 0.99 ([2]; water 5 mL, T = 4 h): 0.10 % w/w
Total Imp. ([2]; water 5 mL, T = 4 h): 0.33 % w/w
Impurity D ([2]; water 5 mL, T = 24 h): 0.25 % w/w
Impurity Unknown RRT 0.99 ([2]; water 5 mL, T = 24 h): 0.10 % w/w
Total Imp. ([2]; water 5 mL, T = 24 h): 0.35 % w/w
